Results taken from patent US20230303549A1, “SUBSTITUTED HETEROARYLOXYPYRIDINES, THE SALTS THEREOF AND THEIR USE AS HERBICIDAL AGENTS” (Bayer Aktiengesellschaft, priority 2020, published 2023).

Columns and labels:
Type in all cases: in vivo
Bassia scoparia (KCHSC) [1] = experiment: Post-emergence herbicidal efficacy at 320 g/ha, greenhouse pot test; details: visual rating vs untreated control after about 3 weeks
Description: (§1) Seeds of mono- and dicotyledonous weed plants were placed in plastic pots in sandy loam soil (doubly sown with in each case one species of mono- or dicotyledonous weed plants per pot), covered with soil and cultivated in a greenhouse under controlled growth conditions. 2 to 3 weeks after sowing, the test plants were treated at the one-leaf stage. The compounds of the invention, formulated in the form of wettable powders (WP) or as emulsion concentrates (EC), were applied onto the green parts of the plants as aqueous suspension or emulsion with addition of 0.5% additive at a water application rate of 600 liters per hectare (converted). After the test plants had been kept in the greenhouse under optimum growth conditions for about 3 weeks, the activity of the preparations was rated visually in comparison to untreated controls. For example, 100% activity=the plants have died, 0% activity=like control plants. Tables […] 11 below show the effects of selected compounds of the general formula (I) according to Table 1 on various harmful plants and an application rate corresponding to 320 g/ha, which were obtained by the experimental procedure mentioned above.

[2] = system: Abutilon theophrasti (ABUTH); experiment: as above; details: visual rating vs untreated control after about 3 weeks
Description: as §1

Poa annua (POAAN) [3] = experiment: as above; details: visual rating vs untreated control after about 3 weeks
Description: as §1

Stellaria media (STEME) [4] = experiment: Pre-emergence herbicide efficacy at 320 g/ha, greenhouse pot test; details: visual scoring vs untreated control after about 3 weeks
From the text: (§2) Seeds of mono- and dicotyledonous weed plants were placed in plastic pots in sandy loam soil (doubly sown with in each case one species of mono- or dicotyledonous weed plants per pot) and covered with soil. The compounds of the invention, formulated in the form of wettable powders (WP) or as emulsion concentrates (EC), were then applied onto the surface of the covering soil as aqueous suspension or emulsion with addition of 0.5% additive at a water application rate of 600 liters per hectare (converted). After the treatment, the pots were placed in a greenhouse and kept under good growth conditions for the test plants. After about 3 weeks, the effect of the preparations was scored visually in comparison with untreated controls as percentages. For example, 100% activity=the plants have died, 0% activity=like control plants. Tables C1 to C12 below show the effects of selected compounds of the general formula (I) according to Table 1 on various harmful plants and an application rate corresponding to 320 g/ha, which were obtained by the experimental procedure mentioned above.

[5] = system: Amaranthus retroflexus (AMARE); experiment: as above; details: visual scoring vs untreated control after about 3 weeks
From the text: as §2

Veronica persica (VERPE) [6] = experiment: as above; details: visual scoring vs untreated control after about 3 weeks
From the text: as §2

Bassia scoparia (KCHSC) [7] = experiment: as above
From the text: as §2

[8] = system: Abutilon theophrasti (ABUTH); experiment: as above; details: visual scoring vs untreated control after about 3 weeks
From the text: as §2

[9] = system: Echinochloa crus-galli (ECHCG); experiment: as above; details: visual scoring vs untreated control after about 3 weeks
From the text: as §2

Setaria viridis (SETVI) = experiment: as above; details: visual scoring vs untreated control after about 3 weeks
From the text: as §2

[10] = system: Matricaria inodora (MATIN); experiment: as above; details: visual scoring vs untreated control after about 3 weeks
From the text: as §2

[11] = system: Alopecurus myosuroides (ALOMY); experiment: as above; details: visual scoring vs untreated control after about 3 weeks
From the text: as §2

Poa annua (POAAN) [12] = experiment: as above; details: visual scoring vs untreated control after about 3 weeks
From the text: as §2

Stellaria media (STEME) [13] = experiment: Post-emergence herbicidal efficacy at 320 g/ha, greenhouse pot test; details: visual rating vs untreated control after about 3 weeks
Description: as §1

[14] = system: Amaranthus retroflexus (AMARE); experiment: as above; details: visual rating vs untreated control after about 3 weeks
Description: as §1

Veronica persica (VERPE) [15] = experiment: as above
Description: as §1

[16] = system: Alopecurus myosuroides (ALOMY); experiment: as above; details: visual rating vs untreated control after about 3 weeks
Description: as §1

[17] = system: Amaranthus retroflexus (AMARE); experiment: Pre-emergence herbicide efficacy at 80 g/ha, greenhouse pot test; details: visual scoring vs untreated control after about 3 weeks
From the text: (§3) Seeds of monocotyledonous and dicotyledonous weed plants and crop plants were placed in plastic or organic planting pots and covered with soil. The compounds of the invention, formulated in the form of wettable powders (WP) or as emulsion concentrates (EC), were then applied to the surface of the covering soil as aqueous suspension or emulsion with addition of 0.5% additive at a water application rate of […] (converted). After the treatment, the pots were placed in a greenhouse and kept under good growth conditions for the test plants. After about 3 weeks, the effect of the preparations was scored visually in comparison with untreated controls as percentages. For example, 100% activity=the plants have died, 0% activity=like control plants. Tables D1 to D12 below show the effects of selected compounds of the general formula (I) according to Table 1 on various harmful plants and an application rate corresponding to 80 g/ha, which were obtained by the experimental procedure mentioned above.

[18] = system: Abutilon theophrasti (ABUTH); experiment: as above; details: visual scoring vs untreated control after about 3 weeks
From the text: as §3

Viola tricolor (VIOTR) [19] = experiment: as above; details: visual scoring vs untreated control after about 3 weeks
From the text: as §3

[20] = system: Amaranthus retroflexus (AMARE); experiment: Post-emergence herbicidal efficacy at 80 g/ha, greenhouse pot test; details: visual rating vs untreated control after about 3 weeks
Description: (§4) Seeds of monocotyledonous and dicotyledonous weeds and crop plants were placed in sandy loam in plastic or organic planting pots, covered with soil and cultivated in a greenhouse under controlled growth conditions. 2 to 3 weeks after sowing, the test plants were treated at the one-leaf stage. The compounds of the invention, formulated in the form of wettable powders (WP) or as emulsion concentrates (EC), were then sprayed onto the green parts of the plants as aqueous suspension or emulsion with addition of 0.5% additive at a water application rate of 600 l/ha (converted). After the test plants had been kept in the greenhouse under optimum growth conditions for about 3 weeks, the activity of the preparations was rated visually in comparison to untreated controls. For example, 100% activity=the plants have died, 0% activity=like control plants. Tables B1 to B6 below show the effects of selected compounds of the general formula (I) according to Table 1 on various harmful plants and an application rate corresponding to 80 g/ha, which were obtained by the experimental procedure mentioned above.

Viola tricolor (VIOTR) [21] = experiment: as above; details: visual rating vs untreated control after about 3 weeks
Description: as §4

[22] = 320 g/ha, visual scoring vs untreated control after about 3 weeks
[23] = 320 g/ha, visual rating vs untreated control after about 3 weeks
[24] = dosage 1280 g/ha in Table C6, visual scoring after about 3 weeks

Cc1cc(C)c(-c2cc(C(F)(F)F)on2)c(Oc2ncc(F)cn2)n1 [Example I-6]
Post-emergence efficacy against Bassia scoparia (KCHSC) (Bassia scoparia (KCHSC) [1]): 90%
Post-emergence efficacy against Abutilon theophrasti (ABUTH) [2]: 90%
Post-emergence efficacy against Poa annua (POAAN) (Poa annua (POAAN) [3]): 90%
Pre-emergence efficacy against Stellaria media (STEME) (Stellaria media (STEME) [4]): 100%
Pre-emergence efficacy against Amaranthus retroflexus (AMARE) [5]: 100%
Pre-emergence efficacy against Veronica persica (VERPE) (Veronica persica (VERPE) [6]): 100%
Pre-emergence efficacy against Bassia scoparia (KCHSC) (Bassia scoparia (KCHSC) [7]; [22]): 90%
Pre-emergence efficacy against Abutilon theophrasti (ABUTH) [8]: 100%
Pre-emergence efficacy against Echinochloa crus-galli (ECHCG) [9]: 100%
Pre-emergence efficacy against Setaria viridis (SETVI) (Setaria viridis (SETVI)): 100%
Pre-emergence efficacy against Matricaria inodora (MATIN) [10]: 100%
Pre-emergence efficacy against Alopecurus myosuroides (ALOMY) [11]: 90%
Pre-emergence efficacy against Poa annua (POAAN) (Poa annua (POAAN) [12]): 100%

Cc1cc(C)c(-c2cc(C(F)F)no2)c(Oc2cnc(Cl)cn2)n1 [Example I-11]
Post-emergence action against Stellaria media (STEME) (Stellaria media (STEME) [13]): 100%
Post-emergence efficacy against Amaranthus retroflexus (AMARE) [14]: 100%
Post-emergence efficacy against Veronica persica (VERPE) (Veronica persica (VERPE) [15]; [23]): 100%
Post-emergence efficacy against Bassia scoparia (KCHSC) (Bassia scoparia (KCHSC) [1]): 90%
Post-emergence efficacy against Alopecurus myosuroides (ALOMY) [16]: 90%
Pre-emergence efficacy against Stellaria media (STEME) (Stellaria media (STEME) [4]): 100%
Pre-emergence efficacy against Amaranthus retroflexus (AMARE) [5]: 100%
Pre-emergence efficacy against Veronica persica (VERPE) (Veronica persica (VERPE) [6]): 100%
Pre-emergence efficacy against Bassia scoparia (KCHSC) (Bassia scoparia (KCHSC) [7]; [22]): 90%
Pre-emergence efficacy against Abutilon theophrasti (ABUTH) [8]: 90%
Pre-emergence efficacy against Setaria viridis (SETVI) (Setaria viridis (SETVI)): 90%
Pre-emergence efficacy against Matricaria inodora (MATIN) [10]: 100%
Pre-emergence efficacy against Alopecurus myosuroides (ALOMY) [11]: 100%
Pre-emergence efficacy against Poa annua (POAAN) (Poa annua (POAAN) [12]): 100%

Cc1cc(C)c(-c2cc(C(F)F)no2)c(Oc2ncc(Cl)cc2F)n1 [Example I-14]
Pre-emergence efficacy against Amaranthus retroflexus (AMARE) [17]: 100%
Pre-emergence efficacy against Abutilon theophrasti (ABUTH) [18]: 80%
Pre-emergence efficacy against Viola tricolor (VIOTR) (Viola tricolor (VIOTR) [19]): 100%
Post-emergence action against Stellaria media (STEME) (Stellaria media (STEME) [13]): 100%
Post-emergence efficacy against Amaranthus retroflexus (AMARE) [14]: 90%
Post-emergence efficacy against Veronica persica (VERPE) (Veronica persica (VERPE) [15]; dosage printed 80 g/ha in Table A9, visual rating after about 3 weeks): 100%
Post-emergence efficacy against Bassia scoparia (KCHSC) (Bassia scoparia (KCHSC) [1]): 100%
Post-emergence efficacy against Abutilon theophrasti (ABUTH) [2]: 90%
Post-emergence efficacy against Alopecurus myosuroides (ALOMY) [16]: 100%
Pre-emergence efficacy against Stellaria media (STEME) (Stellaria media (STEME) [4]): 100%
Pre-emergence efficacy against Amaranthus retroflexus (AMARE) [5]: 100%
Pre-emergence efficacy against Bassia scoparia (KCHSC) (Bassia scoparia (KCHSC) [7]; [24]): 100%
Pre-emergence efficacy against Abutilon theophrasti (ABUTH) [8]: 100%
Pre-emergence efficacy against Setaria viridis (SETVI) (Setaria viridis (SETVI)): 100%
Pre-emergence efficacy against Matricaria inodora (MATIN) [10]: 100%
Pre-emergence efficacy against Poa annua (POAAN) (Poa annua (POAAN) [12]): 100%
Post-emergence efficacy against Amaranthus retroflexus (AMARE) [20]: 100%
Post-emergence efficacy against Viola tricolor (VIOTR) (Viola tricolor (VIOTR) [21]): 100%

Cc1cc(C)c(-c2cc(C3CC3)no2)c(Oc2ncc(F)cn2)n1 [Example I-178]
Post-emergence action against Stellaria media (STEME) (Stellaria media (STEME) [13]): 100%
Post-emergence efficacy against Amaranthus retroflexus (AMARE) [14]: 100%
Post-emergence efficacy against Veronica persica (VERPE) (Veronica persica (VERPE) [15]; [23]): 100%
Post-emergence efficacy against Bassia scoparia (KCHSC) (Bassia scoparia (KCHSC) [1]): 90%
Post-emergence efficacy against Abutilon theophrasti (ABUTH) [2]: 90%
Post-emergence efficacy against Poa annua (POAAN) (Poa annua (POAAN) [3]): 100%
Pre-emergence efficacy against Stellaria media (STEME) (Stellaria media (STEME) [4]): 100%
Pre-emergence efficacy against Amaranthus retroflexus (AMARE) [5]: 100%
Pre-emergence efficacy against Veronica persica (VERPE) (Veronica persica (VERPE) [6]): 100%
Pre-emergence efficacy against Bassia scoparia (KCHSC) (Bassia scoparia (KCHSC) [7]; [24]): 90%
Pre-emergence efficacy against Abutilon theophrasti (ABUTH) [8]: 100%
Pre-emergence efficacy against Echinochloa crus-galli (ECHCG) [9]: 100%
Pre-emergence efficacy against Setaria viridis (SETVI) (Setaria viridis (SETVI)): 100%
Pre-emergence efficacy against Matricaria inodora (MATIN) [10]: 100%
Pre-emergence efficacy against Poa annua (POAAN) (Poa annua (POAAN) [12]): 100%

Cc1cc(C)c(-c2cc(C3CC3)no2)c(Oc2ncc(Cl)cn2)n1 [Example I-179]
Post-emergence action against Stellaria media (STEME) (Stellaria media (STEME) [13]): 100%
Post-emergence efficacy against Amaranthus retroflexus (AMARE) [14]: 90%
Post-emergence efficacy against Veronica persica (VERPE) (Veronica persica (VERPE) [15]; [23]): 100%
Post-emergence efficacy against Bassia scoparia (KCHSC) (Bassia scoparia (KCHSC) [1]): 90%
Post-emergence efficacy against Abutilon theophrasti (ABUTH) [2]: 90%
Post-emergence efficacy against Poa annua (POAAN) (Poa annua (POAAN) [3]): 90%
Pre-emergence efficacy against Stellaria media (STEME) (Stellaria media (STEME) [4]): 100%
Pre-emergence efficacy against Amaranthus retroflexus (AMARE) [5]: 100%
Pre-emergence efficacy against Veronica persica (VERPE) (Veronica persica (VERPE) [6]): 90%
Pre-emergence efficacy against Bassia scoparia (KCHSC) (Bassia scoparia (KCHSC) [7]; [24]): 90%
Pre-emergence efficacy against Abutilon theophrasti (ABUTH) [8]: 100%
Pre-emergence efficacy against Echinochloa crus-galli (ECHCG) [9]: 100%
Pre-emergence efficacy against Setaria viridis (SETVI) (Setaria viridis (SETVI)): 100%
Pre-emergence efficacy against Matricaria inodora (MATIN) [10]: 100%
Pre-emergence efficacy against Poa annua (POAAN) (Poa annua (POAAN) [12]): 100%

Cc1cc(C)c(-n2cc(I)cn2)c(Oc2ncc(Cl)cn2)n1 [Example I-295]
Post-emergence action against Stellaria media (STEME) (Stellaria media (STEME) [13]): 90%
Post-emergence efficacy against Amaranthus retroflexus (AMARE) [14]: 90%
Post-emergence efficacy against Veronica persica (VERPE) (Veronica persica (VERPE) [15]; [23]): 100%
Post-emergence efficacy against Bassia scoparia (KCHSC) (Bassia scoparia (KCHSC) [1]): 90%
Pre-emergence efficacy against Stellaria media (STEME) (Stellaria media (STEME) [4]): 100%
Pre-emergence efficacy against Amaranthus retroflexus (AMARE) [5]: 100%
Pre-emergence efficacy against Veronica persica (VERPE) (Veronica persica (VERPE) [6]): 90%
Pre-emergence efficacy against Bassia scoparia (KCHSC) (Bassia scoparia (KCHSC) [7]; [24]): 100%
Pre-emergence efficacy against Abutilon theophrasti (ABUTH) [8]: 100%
Pre-emergence efficacy against Echinochloa crus-galli (ECHCG) [9]: 90%
Pre-emergence efficacy against Setaria viridis (SETVI) (Setaria viridis (SETVI)): 100%
Pre-emergence efficacy against Matricaria inodora (MATIN) [10]: 100%
Pre-emergence efficacy against Poa annua (POAAN) (Poa annua (POAAN) [12]): 90%
